According to ChEMBL document CHEMBL4145686, “Discovery of a Potent and Selective Steroidal Glucocorticoid Receptor Antagonist (ORIC-101)” (J Med Chem, 2018):

How the values were obtained:
Glucocorticoid receptor = target: T1, Glucocorticoid receptor (Homo sapiens, UniProt P04150); experiment: Antagonist activity at GR in human PBMC assessed as reduction in dexamethasone-induced GILZ gene expression incubated for 6 hrs by RT-qPCR method; type: cell-based
T1 sequence (P04150 whole entry): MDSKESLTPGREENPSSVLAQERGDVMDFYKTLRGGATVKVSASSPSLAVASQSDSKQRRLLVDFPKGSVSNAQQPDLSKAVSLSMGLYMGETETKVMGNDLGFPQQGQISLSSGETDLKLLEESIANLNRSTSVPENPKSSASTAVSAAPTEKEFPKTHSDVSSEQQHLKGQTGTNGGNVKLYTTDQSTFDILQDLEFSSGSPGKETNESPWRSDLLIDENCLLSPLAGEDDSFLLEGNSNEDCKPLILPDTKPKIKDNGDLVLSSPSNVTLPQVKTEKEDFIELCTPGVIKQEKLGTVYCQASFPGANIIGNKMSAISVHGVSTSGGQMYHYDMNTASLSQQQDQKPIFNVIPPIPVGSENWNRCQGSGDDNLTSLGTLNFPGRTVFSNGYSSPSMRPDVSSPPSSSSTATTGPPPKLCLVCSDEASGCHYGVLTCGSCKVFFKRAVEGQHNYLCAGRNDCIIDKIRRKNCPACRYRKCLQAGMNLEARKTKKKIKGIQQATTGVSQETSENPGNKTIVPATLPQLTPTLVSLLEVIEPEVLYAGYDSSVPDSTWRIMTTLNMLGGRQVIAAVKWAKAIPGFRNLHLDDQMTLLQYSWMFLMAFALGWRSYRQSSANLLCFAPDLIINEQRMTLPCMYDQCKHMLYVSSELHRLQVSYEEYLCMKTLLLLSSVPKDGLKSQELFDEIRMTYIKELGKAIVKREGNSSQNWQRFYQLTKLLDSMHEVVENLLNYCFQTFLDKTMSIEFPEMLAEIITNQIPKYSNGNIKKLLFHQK

[1] = Oral bioavailability in mini pig at 10 mg/kg; type: ADME, organism-based, Sus scrofa; details: in vivo

For CC(C)N(C)c1ccc([C@H]2C[C@@]3(C)[C@@H](CC[C@@]3(O)C#CC(C)(C)C)[C@@H]3CCC4=CC(=O)CC[C@@H]4[C@H]32)cc1, which IC50 (Glucocorticoid receptor) is on record?
The IC50 was 0.0249 µM.

And the bioavailability [1]?
Its bioavailability is 20%.
